The source of these data is US8192753B2, “pH-sensitive cationic lipids, and liposomes and nanocapsules containing the same” (Marina Biotech, Inc., priority 2002, dated 2012).

This series in a line: Determination of pKa values by titration in 0.5% TRITON-X 100. Conditions: lipid in 0.5% TRITON-X 100 in water, titrated with 20 mM NaOH from pH 3.0.

Take “4-(2-aminoethyl)morpholine-di-palmitoylglycerol succinate [#60]”: the pKa (usually the negative logarithm of the acid dissociation constant) is on record as 7.2.
